Experimental data taken from paper PMC3816717 (Bioorganic & medicinal chemistry, 2011).

target: mCD22 (Mus musculus, UniProt P35329); assay: Competition ELISA with biotinylated form of 1, mCD22Fc; type: binding, murine

Row | fold less potent than 5 for CD22 [fold] | Structure (SMILES)
1 | 50 | O=C(Cc1ccc(-c2ccc(F)cc2)cc1)NC[C@@H](O)[C@@H](O)[C@@H]1O[C@@](OCc2ccccc2)(C(=O)O)C[C@H](O)[C@H]1NC(=O)CO [Compound 7, Benzyl 3,5,9-trideoxy-5-glycolamido-9-(4′-fluoro-4-biphenyl)acetamido-D-glycero-α-D-galacto-2-nonulopyranosidonic acid]

target: T1, hCD22 (Homo sapiens, UniProt P20273); assay: Competition ELISA; type: binding
T1 sequence (P20273 20-326 limits assumed): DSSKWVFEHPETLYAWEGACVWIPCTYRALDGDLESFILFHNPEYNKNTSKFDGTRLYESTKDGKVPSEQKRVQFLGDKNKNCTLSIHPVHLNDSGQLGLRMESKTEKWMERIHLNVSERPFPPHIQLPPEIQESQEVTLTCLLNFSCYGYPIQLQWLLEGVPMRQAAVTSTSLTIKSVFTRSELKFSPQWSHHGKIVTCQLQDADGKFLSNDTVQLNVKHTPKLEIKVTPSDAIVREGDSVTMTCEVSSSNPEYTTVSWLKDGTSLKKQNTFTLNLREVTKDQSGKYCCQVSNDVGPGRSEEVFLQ

Row | Structure (SMILES) | IC50 [nM]
2 | O=C(CO)N[C@H]1[C@H]([C@H](O)[C@H](O)CNCc2ccc(-c3ccc(O)cc3)cc2)O[C@@](OCc2ccccc2)(C(=O)O)C[C@@H]1O [Compound 8, Benzyl 3,5,9-trideoxy-5-glycolamido-9-(4′-hydroxy-4-biphenyl)methylamino-D-glycero-α-D-galacto-2-nonulopyranosidonic acid] | 2750 ± 1300
3 | COc1ccc(O[C@@H]2O[C@H](CO[C@]3(C(=O)O)C[C@H](O)[C@@H](NC(=O)CO)[C@H]([C@H](O)[C@H](O)CNCc4ccc(-c5ccc(O)cc5)cc4)O3)[C@H](O)[C@H](O)[C@H]2O)cc1 [Compound 2, 9-(4'-hydroxy-4-biphenyl)methylamino-9-deoxy-Neu5Gcα2-6GalOMP, reference compound] | 3290 ± 330
4 | O=C(CO)N[C@H]1[C@H]([C@H](O)[C@H](O)CNCc2ccc(-c3ccc(O)cc3)cc2)O[C@@](OCc2ccc(-c3ccccc3)cc2)(C(=O)O)C[C@@H]1O [Compound 9, (4-Biphenyl)methyl 3,5,9-trideoxy-5-glycolamido-9-(4′-hydroxy-4-biphenyl) methylamino-D-glycero-α-D-galacto-2-nonulopyranosidonic acid] | 2240 ± 280
5 | O=C(Cc1ccc(-c2ccc(O)cc2)cc1)NC[C@@H](O)[C@@H](O)[C@@H]1O[C@@](OCc2ccccc2)(C(=O)O)C[C@H](O)[C@H]1NC(=O)CO [Compound 5, benzyl 3,5,9-trideoxy-5-glycolamido-9-(4′-hydroxy-4-biphenyl)acetamido-D-glycero-α-D-galacto-2-nonulopyranosidonic acid] | 240 ± 50

Other lines, results leading:

Row | IC50 [nM] | Structure (SMILES)
6 | 380 | O=C(Cc1ccc(-c2ccc(O)cc2)cc1)NC[C@@H](O)[C@@H](O)[C@@H]1O[C@@](OCc2ccc(-c3ccccc3)cc2)(C(=O)O)C[C@H](O)[C@H]1NC(=O)CO [Compound 6]
7 | 3270 ± 620 | COc1ccc(O[C@@H]2O[C@H](CO[C@]3(C(=O)O)C[C@H](O)[C@@H](NC(=O)CO)[C@H]([C@H](O)[C@H](O)CNC(=O)Cc4ccc(-c5ccc(O)cc5)cc4)O3)[C@H](O)[C@H](O)[C@H]2O)cc1 [Compound 1, 9-(4'-hydroxy-4-biphenyl)acetamido-9-deoxy-Neu5Gcα2-6GalOMP, reference compound]
